# Experimental data reported in patent publication US8450357B2, “Compositions comprising an aryl pyrazole and/or a formamidine, methods and uses thereof” (Merial Limited, priority 2008, dated 2013).
# Where two headings read alike, the source gives them in different places.
# Tests used:
# Format in all cases: in vivo
# [1] = system: adult Rhipicephalus sanguineus ticks; test: whole plant or invertebrate; details: for mortality at 6.25 ppm / mortality at 12.5 ppm / mortality at 25 ppm / mortality at 0.0016 ppm / mortality at 0.006 ppm / mortality at 0.025 ppm / mortality at 0.1 ppm / mortality at 0.4 ppm / mortality at 1.6 ppm: Rhipicephalus sanguineus; for Synergistic Ratio (EC50): EC50 alone divided by EC50 with Amitraz (12.5 ppm); for Synergistic Ratio (EC90): EC90 alone divided by EC90 with Amitraz (12.5 ppm)
# Text: Dosages were serially diluted using this same formulation.
# [2] = system: fleas; test: Efficacy of combination of fipronil and amitraz against fleas on dogs; details: topical
# Description: (§1) A fipronil formulation (commercial product) was prepared and stored separately from amitraz. Amitraz was formulated with the same carrier. Both parts, fipronil and amitraz in solvent(s) were stored separately and applied simultaneously. Amounts applied were calculated to keep dose at 10% (w/v) each in final formulation and 10 mg/kg BW of actives in amount applied.
# The amitraz and fipronil composition described in Example 10 were used in this study. […] Treatment was applied by parting the hair on the midline of the neck, between the base of the skull and the shoulder blades, and applying the formulation directly onto the skin.
# [3] = system: ticks; test: Efficacy of combination of fipronil with amitraz against ticks on dogs; details: 10 mg/kg BW of actives, topical
# Description: as §1
# In brief, treatment was applied by parting the hair on the midline of the neck, between the base of the skull and the shoulder blades, and applying the formulation directly onto the skin.
# [4] = system: Ctenocephalides felis fleas; test: Study C: flea efficacy of Compound 1 and fipronil alone and with amitraz in dogs
# Description: The effectiveness of Compound 1 alone, fipronil alone, Compound 1 in combination with amitraz, or fipronil in combination with amitraz, when administered once as topical solutions to dogs against induced infestations of Rhipicephalus sanguineus and Ctenocephalides felis were determined in a third clinical study. Thirty-six beagles (18 males and 18 females) were selected for the study. Six replicates of 6 animals each were formed. Treatment Group 1 dogs were treated with a placebo. Treatment Groups 2, 3, 4, 5 and 6 received their respective treatments as a topical spot-on application once on Day 0. Each formulation included diethyleneglycol monoethyl ether (transcutol) as carrier. The Treatment Groups were: Treatment Group 2: fipronil at 0.1 mL/kg body weight (10 mg/kg); Treatment Group 3: Compound 1 at 0.1 mL/kg (10 mg/kg) body weight; Treatment Group 4: Compound 1 at 0.2 mL/kg (20 mg/kg) body weight; Treatment Group 5: Compound 1 at 0.1 mL/kg (10 mg/kg) body weight plus amitraz at 0.04 mL/kg (8 mg/kg) body weight; Treatment Group 6: fipronil at 0.1 mL/kg (10 mg/kg) body weight plus amitraz at 0.04 mL/kg (8 mg/kg) body weight. Treatment was applied by parting the hair and applying the formulation(s) directly onto the skin on one spot at the midline of the neck, except for Groups 4, 5 and 6 which were applied in approximately equal volumes on two spots, one spot between the base of the skull and the shoulder blades and the other at the front of the shoulder blades.
# All dogs were infested with approximately 50 Rhipicephalus sanguineus ticks on Days −1, 7, 14, 21, 28, 35, 42, 49 and 56. Dogs were also infested with approximately 100 Ctenocephalides felis fleas on Days −1, 8, 15, 22, 29, 36, 43, 50 and 57. Ectoparasites were removed and counted on Day 2, approximately 48 hours after treatment and on Days 9, 16, 23, 30, 37, 44, 51 and 58 approximately 24 hours after flea infestation and 48 hours after tick infestation. Tables 8 and 9 below show the % efficacy of formulations comprising fipronil at 0.1 ml/kg of body weight, Compound 1 at […], and fipronil and Compound 1 both at […] in combination with amitraz at 0.04 ml/kg of body weight compared to control group without active compounds. The percent reduction in flea counts of the treated groups with respect to the Control group over the study is shown in FIG. 14.
# [5] = 6 h, read-out: 6 hour % Mortality Rep 1
# [6] = 6 h, read-out: 6 hour % Mortality Rep 2
# [7] = 6 h, read-out: 6 hour Avg. % Mortality
# [8] = 24 h, read-out: 24 hour % Mortality Rep 1
# [9] = 24 h, read-out: 24 hour % Mortality Rep 2
# [10] = 24 h, read-out: 24 hour Avg. % Mortality
# [11] = 48 h, read-out: 48 hour % Mortality Rep 1
# [12] = 48 h, read-out: 48 hour % Mortality Rep 2
# [13] = 48 h, read-out: 48 hour Avg. % Mortality
compound,measurement,setting,value
"Cc1ccc(/N=C/N(C)/C=N/c2ccc(C)cc2C)c(C)c1 [Amitraz, amitraz]",mortality at 6.25 ppm,[1]; [5],0%
same,mortality at 12.5 ppm,[1]; [5],0%
same,mortality at 25 ppm,[1]; [5],0%
same,mortality at 6.25 ppm,[1]; [6],0%
same,mortality at 12.5 ppm,[1]; [6],0%
same,mortality at 25 ppm,[1]; [6],0%
same,mortality at 6.25 ppm,[1]; [7],0%
same,mortality at 12.5 ppm,[1]; [7],0%
same,mortality at 25 ppm,[1]; [7],0%
same,mortality at 6.25 ppm,[1]; [8],0%
same,mortality at 12.5 ppm,[1]; [8],0%
same,mortality at 25 ppm,[1]; [8],0%
same,mortality at 6.25 ppm,[1]; [9],0%
same,mortality at 12.5 ppm,[1]; [9],0%
same,mortality at 25 ppm,[1]; [9],0%
same,mortality at 6.25 ppm,[1]; [10],0%
same,mortality at 12.5 ppm,[1]; [10],0%
same,mortality at 25 ppm,[1]; [10],0%
same,mortality at 6.25 ppm,[1]; [11],0%
same,mortality at 12.5 ppm,[1]; [11],0%
same,mortality at 25 ppm,[1]; [11],10%
same,mortality at 6.25 ppm,[1]; [12],0%
same,mortality at 12.5 ppm,[1]; [12],0%
same,mortality at 25 ppm,[1]; [12],10%
same,mortality at 6.25 ppm,[1]; [13],0%
same,mortality at 12.5 ppm,[1]; [13],0%
same,mortality at 25 ppm,[1]; [13],10%
same,Efficacy against fleas,[2]; 2 days after treatment,14.3%
same,Efficacy against fleas,[2]; 16 days after treatment,12.4%
same,Efficacy against fleas,[2]; 23 days after treatment,16.3%
same,Efficacy against fleas,[2]; 30 days after treatment,20.2%
same,Efficacy against fleas,[2]; 37 days after treatment,32.5%
same,Efficacy against fleas,[2]; 44 days after treatment,25.9%
same,Efficacy against ticks,[3]; 2 days after treatment,95.1%
same,Efficacy against ticks,[3]; 16 days after treatment,96.9%
same,Efficacy against ticks,[3]; 23 days after treatment,95.0%
same,Efficacy against ticks,[3]; 30 days after treatment,64.9%
same,Efficacy against ticks,[3]; 37 days after treatment,56.2%
same,Efficacy against ticks,[3]; 44 days after treatment,28.3%
"Cc1c([S+]([O-])C(F)(Cl)Cl)c(C#N)nn1-c1c(F)cc(C(F)(F)F)cc1Cl (stereo not drawn) [Compound 1, 3-cyano-1-(2-chloro-6-fluoro-4-trifluoromethylphenyl)-4-dichlorofluoromethylsulfinyl-5-methyl-1H-pyrazole]",% Efficacy against fleas,"[4]; Day 2, 10 mg/kg",100%
same,% Efficacy against fleas,"[4]; Day 2, 20 mg/kg",100%
same,% Efficacy against fleas,"[4]; Day 9, 10 mg/kg",100%
same,% Efficacy against fleas,"[4]; Day 9, 20 mg/kg",100%
same,% Efficacy against fleas,"[4]; Day 16, 10 mg/kg",100%
same,% Efficacy against fleas,"[4]; Day 16, 20 mg/kg",100%
same,% Efficacy against fleas,"[4]; Day 23, 10 mg/kg",100%
same,% Efficacy against fleas,"[4]; Day 23, 20 mg/kg",100%
same,% Efficacy against fleas,"[4]; Day 30, 10 mg/kg",99.8%
same,% Efficacy against fleas,"[4]; Day 30, 20 mg/kg",100%
same,% Efficacy against fleas,"[4]; Day 37, 10 mg/kg",99.4%
same,% Efficacy against fleas,"[4]; Day 37, 20 mg/kg",100%
same,% Efficacy against fleas,"[4]; Day 44, 10 mg/kg",98.6%
same,% Efficacy against fleas,"[4]; Day 44, 20 mg/kg",100%
same,% Efficacy against fleas,"[4]; Day 51, 10 mg/kg",98.5%
same,% Efficacy against fleas,"[4]; Day 51, 20 mg/kg",99.8%
same,% Efficacy against fleas,"[4]; Day 58, 10 mg/kg",94.6%
same,% Efficacy against fleas,"[4]; Day 58, 20 mg/kg",100%
"N#Cc1nn(-c2c(Cl)cc(C(F)(F)F)cc2Cl)c(N)c1[S+]([O-])C(F)(F)F (stereo not drawn) [fipronil, 5-amino-3-cyano-1-(2,6-dichloro-4-trifluoromethylphenyl)-4-trifluoromethylsulfinylpyrazole]",% Efficacy against fleas,"[4]; Day 2, 10 mg/kg",100%
same,% Efficacy against fleas,"[4]; Day 9, 10 mg/kg",100%
same,% Efficacy against fleas,"[4]; Day 16, 10 mg/kg",100%
same,% Efficacy against fleas,"[4]; Day 23, 10 mg/kg",100%
same,% Efficacy against fleas,"[4]; Day 30, 10 mg/kg",100%
same,% Efficacy against fleas,"[4]; Day 37, 10 mg/kg",100%
same,% Efficacy against fleas,"[4]; Day 44, 10 mg/kg",99.8%
same,% Efficacy against fleas,"[4]; Day 51, 10 mg/kg",100%
same,% Efficacy against fleas,"[4]; Day 58, 10 mg/kg",99.1%
same,Synergistic Ratio (EC50),[1]; 6 hour Eval,14.7
same,Synergistic Ratio (EC90),[1]; 6 hour Eval,>6.76
same,Synergistic Ratio (EC50),[1]; 24 hour Eval,156.8
same,Synergistic Ratio (EC90),[1]; 24 hour Eval,>156
same,Synergistic Ratio (EC50),[1]; 48 hour Eval,56.4
same,Synergistic Ratio (EC90),[1]; 48 hour Eval,32.3
same,mortality at 0.0016 ppm,[1]; [5],0%
same,mortality at 0.006 ppm,[1]; [5],0%
same,mortality at 0.025 ppm,[1]; [5],0%
same,mortality at 0.1 ppm,[1]; [5],0%
same,mortality at 0.4 ppm,[1]; [5],0%
same,mortality at 1.6 ppm,[1]; [5],0%
same,mortality at 6.25 ppm,[1]; [5],0%
same,mortality at 25 ppm,[1]; [5],40%
same,mortality at 0.0016 ppm,[1]; [6],0%
same,mortality at 0.006 ppm,[1]; [6],0%
same,mortality at 0.025 ppm,[1]; [6],0%
same,mortality at 0.1 ppm,[1]; [6],0%
same,mortality at 0.4 ppm,[1]; [6],0%
same,mortality at 1.6 ppm,[1]; [6],0%
same,mortality at 6.25 ppm,[1]; [6],20%
same,mortality at 25 ppm,[1]; [6],60%
same,mortality at 0.0016 ppm,[1]; [7],0%
same,mortality at 0.006 ppm,[1]; [7],0%
same,mortality at 0.025 ppm,[1]; [7],0%
same,mortality at 0.1 ppm,[1]; [7],0%
same,mortality at 0.4 ppm,[1]; [7],0%
same,mortality at 1.6 ppm,[1]; [7],0%
same,mortality at 6.25 ppm,[1]; [7],10%
same,mortality at 25 ppm,[1]; [7],50%
same,mortality at 0.0016 ppm,[1]; [8],0%
same,mortality at 0.006 ppm,[1]; [8],0%
same,mortality at 0.025 ppm,[1]; [8],0%
same,mortality at 0.1 ppm,[1]; [8],0%
same,mortality at 0.4 ppm,[1]; [8],0%
same,mortality at 6.25 ppm,[1]; [8],90%
same,mortality at 25 ppm,[1]; [8],80%
same,mortality at 0.0016 ppm,[1]; [9],0%
same,mortality at 0.006 ppm,[1]; [9],0%
same,mortality at 0.025 ppm,[1]; [9],0%
same,mortality at 0.1 ppm,[1]; [9],0%
same,mortality at 0.4 ppm,[1]; [9],0%
same,mortality at 1.6 ppm,[1]; [9],40%
same,mortality at 6.25 ppm,[1]; [9],50%
same,mortality at 25 ppm,[1]; [9],90%
same,mortality at 0.0016 ppm,[1]; [10],0%
same,mortality at 0.006 ppm,[1]; [10],0%
same,mortality at 0.025 ppm,[1]; [10],0%
same,mortality at 0.1 ppm,[1]; [10],0%
same,mortality at 0.4 ppm,[1]; [10],0%
same,mortality at 1.6 ppm,[1]; [10],30%
same,mortality at 6.25 ppm,[1]; [10],70%
same,mortality at 25 ppm,[1]; [10],85%
same,mortality at 0.0016 ppm,[1]; [11],0%
same,mortality at 0.006 ppm,[1]; [11],0%
same,mortality at 0.025 ppm,[1]; [11],0%
same,mortality at 0.1 ppm,[1]; [11],0%
same,mortality at 0.4 ppm,[1]; [11],20%
same,mortality at 1.6 ppm,[1]; [11],50%
same,mortality at 6.25 ppm,[1]; [11],100%
same,mortality at 25 ppm,[1]; [11],100%
same,mortality at 0.0016 ppm,[1]; [12],0%
same,mortality at 0.006 ppm,[1]; [12],0%
same,mortality at 0.025 ppm,[1]; [12],0%
same,mortality at 0.1 ppm,[1]; [12],0%
same,mortality at 0.4 ppm,[1]; [12],20%
same,mortality at 1.6 ppm,[1]; [12],60%
same,mortality at 6.25 ppm,[1]; [12],100%
same,mortality at 25 ppm,[1]; [12],100%
same,mortality at 0.0016 ppm,[1]; [13],0%
same,mortality at 0.006 ppm,[1]; [13],0%
same,mortality at 0.025 ppm,[1]; [13],0%
same,mortality at 0.1 ppm,[1]; [13],0%
same,mortality at 0.4 ppm,[1]; [13],20%
same,mortality at 1.6 ppm,[1]; [13],55%
same,mortality at 6.25 ppm,[1]; [13],100%
same,mortality at 25 ppm,[1]; [13],100%
same,Efficacy against fleas,[2]; 2 days after treatment,100%
same,Efficacy against fleas,[2]; 16 days after treatment,100%
same,Efficacy against fleas,[2]; 23 days after treatment,100%
same,Efficacy against fleas,[2]; 30 days after treatment,94.4%
same,Efficacy against fleas,[2]; 37 days after treatment,63.4%
same,Efficacy against fleas,[2]; 44 days after treatment,55.9%
same,Efficacy against fleas,[2]; 51 days after treatment,74.7%
same,Efficacy against ticks,[3]; 2 days after treatment,90.9%
same,Efficacy against ticks,[3]; 16 days after treatment,100%
same,Efficacy against ticks,[3]; 23 days after treatment,99.3%
same,Efficacy against ticks,[3]; 30 days after treatment,53.9%
same,Efficacy against ticks,[3]; 37 days after treatment,43.9%
same,Efficacy against ticks,[3]; 44 days after treatment,37.9%
